# Where two headings read alike, the source gives them in different places.
# Tests used:
# [1] = system: human umbilical vein endothelial cells (HUVEC); assay: Impedimetric measurement (xCELLigence SP), delta slope, HUVEC; conditions: HUVEC, three parallels; for delta slope (DS), short-term: 0–2 h; for delta slope (DS), long-term: 0–72 h
# [2] = system: primary human cardiac myocytes (HCM); conditions: HCM, three parallels; for delta slope (DS), short-term: 0–2 h; for delta slope (DS), long-term: 0–72 h
# [3] = system: human acute monocytic leukemia (MonoMac6) cells; conditions: cited from earlier work
# From the text: (§1) Table 1 Comparative study of cytotoxic effects and cardiotoxicity elicited by GnRH-based antitumor compounds (1–15) and reference substances (AN-152, Dox, Dau, Mtx). IC50 values show antitumor cytotoxic characteristics of the conjugates in human breast cancer (MCF-7), human colorectal adenocarcinoma (HT-29) and human acute monocytic leukemia (MM6) derived cell lines as representative tumor cells.
# [4] = system: MCF-7 human breast adenocarcinoma cells; conditions: MTT assay; cited from earlier work
# From the text: as §1
# [5] = system: HT-29 human colon adenocarcinoma cells; conditions: MTT assay; cited from earlier work
# From the text: as §1
structure (smiles),measurement,setting,value
COc1cccc2c1C(=O)c1c(O)c3c(c(O)c1C2=O)C[C@@](O)(C(C)=O)C[C@@H]3O[C@H]1C[C@H](N)[C@H](O)[C@H](C)O1 [daunorubicin],"delta slope (DS), short-term","[1]; Table S1a, 10^-6 mol/L",0.047
same,"delta slope (DS), short-term","[1]; Table S1a, 10^-7 mol/L",0.055
same,"delta slope (DS), short-term","[1]; Table S1a, 10^-8 mol/L",0.018
same,"delta slope (DS), short-term","[1]; Table S1a, 10^-9 mol/L",-0.008
same,"delta slope (DS), short-term","[1]; Table S1a, 10^-10 mol/L",-0.008
same,"delta slope (DS), short-term","[1]; Table S1a, 10^-11 mol/L",0.008
same,"delta slope (DS), short-term","[1]; Table S1a, 10^-12 mol/L",-0.005
same,"delta slope (DS), long-term","[1]; Table S1a, 10^-6 mol/L",−0.019
same,"delta slope (DS), long-term","[1]; Table S1a, 10^-6 mol/L, listed as Daunorubicin",-0.019
same,"delta slope (DS), long-term","[1]; Table S1a, 10^-7 mol/L",−0.007
same,"delta slope (DS), long-term","[1]; Table S1a, 10^-7 mol/L, listed as Daunorubicin",-0.007
same,"delta slope (DS), long-term","[1]; Table S1a, 10^-8 mol/L",-0.001
same,"delta slope (DS), long-term","[1]; Table S1a, 10^-9 mol/L",-0.00113
same,"delta slope (DS), long-term","[1]; Table S1a, 10^-10 mol/L",0.001
same,"delta slope (DS), long-term","[1]; Table S1a, 10^-11 mol/L",0.002
same,"delta slope (DS), long-term","[1]; Table S1a, 10^-12 mol/L",-0.001
same,"delta slope (DS), short-term","[1]; Table S3a, 10^-6 mol/L",0.003
same,"delta slope (DS), short-term","[1]; Table S3a, 10^-7 mol/L",-0.002
same,"delta slope (DS), short-term","[1]; Table S3a, 10^-8 mol/L",-0.008
same,"delta slope (DS), long-term","[1]; Table S3a, 10^-6 mol/L",-0.010
same,"delta slope (DS), long-term","[1]; Table S3a, 10^-7 mol/L",0.001
same,"delta slope (DS), short-term","[1]; Table S4a, 10^-6 mol/L",0.009
same,"delta slope (DS), short-term","[1]; Table S4a, 10^-7 mol/L",0.016
same,"delta slope (DS), short-term","[1]; Table S4a, 10^-8 mol/L",0.005
same,"delta slope (DS), long-term","[1]; Table S4a, 10^-6 mol/L",-0.058
same,"delta slope (DS), long-term","[1]; Table S4a, 10^-7 mol/L",0.004
same,"delta slope (DS), long-term","[1]; Table S4a, 10^-8 mol/L",0.006
same,"delta slope (DS), short-term","[2]; Table S1b, 10^-6 mol/L",0.031
same,"delta slope (DS), short-term","[2]; Table S1b, 10^-7 mol/L",-0.001
same,"delta slope (DS), short-term","[2]; Table S1b, 10^-8 mol/L",0.001
same,"delta slope (DS), short-term","[2]; Table S1b, 10^-9 mol/L",-0.001
same,"delta slope (DS), short-term","[2]; Table S1b, 10^-10 mol/L",-0.001
same,"delta slope (DS), short-term","[2]; Table S1b, 10^-11 mol/L",-0.001
same,"delta slope (DS), short-term","[2]; Table S1b, 10^-12 mol/L",-0.001
same,"delta slope (DS), long-term","[2]; Table S1b, 10^-6 mol/L",−0.019
same,"delta slope (DS), long-term","[2]; Table S1b, 10^-6 mol/L, listed as Daunorubicin",-0.019
same,"delta slope (DS), long-term","[2]; Table S1b, 10^-7 mol/L",−0.007
same,"delta slope (DS), long-term","[2]; Table S1b, 10^-7 mol/L, listed as Daunorubicin",-0.007
same,"delta slope (DS), long-term","[2]; Table S1b, 10^-8 mol/L",-0.001
same,"delta slope (DS), long-term","[2]; Table S1b, 10^-9 mol/L",-0.001
same,"delta slope (DS), long-term","[2]; Table S1b, 10^-10 mol/L",-0.001
same,"delta slope (DS), long-term","[2]; Table S1b, 10^-11 mol/L",-0.001
same,"delta slope (DS), long-term","[2]; Table S1b, 10^-12 mol/L",-0.001
same,"delta slope (DS), short-term","[2]; Table S3b, 10^-6 mol/L",0.028
same,"delta slope (DS), short-term","[2]; Table S3b, 10^-8 mol/L",-0.001
same,"delta slope (DS), long-term","[2]; Table S3b, 10^-6 mol/L",-0.021
same,"delta slope (DS), long-term","[2]; Table S3b, 10^-7 mol/L",-0.006
same,"delta slope (DS), long-term","[2]; Table S3b, 10^-8 mol/L",-0.001
same,"delta slope (DS), short-term","[2]; Table S4b, 10^-6 mol/L",0.030
same,"delta slope (DS), short-term","[2]; Table S4b, 10^-7 mol/L",-0.009
same,"delta slope (DS), short-term","[2]; Table S4b, 10^-8 mol/L",-0.001
same,"delta slope (DS), long-term","[2]; Table S4b, 10^-6 mol/L",-0.024
same,"delta slope (DS), long-term","[2]; Table S4b, 10^-7 mol/L",-0.009
same,"delta slope (DS), long-term","[2]; Table S4b, 10^-8 mol/L",-0.001
same,"delta slope (DS), short-term","[2]; Table S5b, 10^-8 mol/L",-0.001
same,"delta slope (DS), long-term","[2]; Table S5b, 10^-8 mol/L",-0.001
same,IC50,[3],0.08 ± 0.1 nM
same,IC50,[4],400 ± 100 nM
same,IC50,[5],300 ± 200 nM
